Measurements published in US12037325B2, “1,2-diaminobenzimidazole derivative” (Carna Biosciences, Inc., priority 2021, dated 2024).
Structures can show the parent of a compound that is named as a salt.

Legend:
hSTING = molecular target: T1, hSTING (Homo sapiens, UniProt Q86WV6); experiment: Inhibition test of intracellular human STING (hSTING) pathways using reporter cells (HEK-Blue ISG, SEAP reporter); assay type: cell-based; details: stimulation with Compound 3 (10 nM), 21 hours, read-out: Inhibitory Activity on hSTING
T1 construct: host or cells: HEK-Blue ISG cells (HEK293-derived SEAP reporter line)
Method: Since STING activates the transcription factor IRF3 by ligand stimulation, the activity of STING can be evaluated by a reporter assay using a secreted alkaline phosphatase (SEAP reporter) incorporated downstream of the IRF-inducible promoter. In other words, the hSTING inhibitory activity of the test compounds was evaluated using HEK-Blue™ ISG cells (manufactured by InvivoGen, #hkb-isg-1) into which the SEAP reporter was incorporated. The activation of hSTING was performed by stimulation with the small molecule ligand, Compound 3 as described in the literature (Ramanjulu, J. M., et al., Nature. 2018, 564 (7736), 439-443).
The HEK-Blue™ ISG cells were seeded in 96-well plates and cultured overnight at 37° C. in a 5% CO2 incubator. To each well of the cell culture plates, a test compound solution adjusted to have a final concentration of 0.1 to 10 μM was added and cultured in the CO2 incubator for 1 hour. Then, the Compound 3 (final concentration of 10 nM) was added thereto and further cultured in the CO2 incubator for 21 hours. After collecting the culture supernatant from each well, the reporter activity was measured by luminous reaction of alkaline phosphatase.
(§1) Method for Evaluating Inhibitory Activity. Taking the reporter activity in the group without test compounds added and with Compound 3 added as 100% and the reporter activity in the group without test compounds added and without Compound 3 added as 0%, IC50 values were determined by regression analysis of the inhibition rate calculated from the reporter activity at each compound concentration and the test compound concentration (logarithm).
Evaluation Result. […] The inhibitory effect on the hSTING was indicated by marking an IC50 value of less than 0.1 μM with ***, that of 0.1 μM or more and less than 1 μM with **, that of 1 μM or more and less than 10 μM with *, and that of 10 μM or more with “-”.

STING = molecular target: T2, STING (Homo sapiens, UniProt Q86WV6, G230A/H232R/R293Q/R71H); experiment: Inhibition test of human IFN-β production by cGAMP stimulation in THP-1 cells; assay type: cell-based; details: PMA-treated THP-1 cells, 2'3'-cGAMP transfection, 18 hours, ELISA of culture supernatant; read-out: Inhibitory effect on the IFN-β production
T2 construct: host or cells: THP-1 cells, PMA-treated
Method: The human monocytic cell line THP-1 cells were used to measure the amount of IFN-β produced when stimulated with the endogenous ligand cGAMP, thereby evaluating the inhibitory activity of the test compounds on STING activation.
After THP-1 cells (manufactured by ATCC) were seeded in 96-well plates, PMA (manufactured by Santa Cruz Biotechnology, Inc.) adjusted to a concentration after addition of 100 nM was added and cultured overnight at a 37° C. in a 5% CO2 incubator (10% FBS, 50 U/mL penicillin/50 μg/mL streptomycin-containing RPMI 1640 medium). To each well of the plate, a test compound solution adjusted to a final concentration of 0.001-1 μM of the test compound was added and cultured in the CO2 incubator for 1 hour (DMSO final concentration of 0.1%). 0.12 μg/well of 2′3′-cGAMP (manufactured by ChemieTek, #CT-CGAMP) was introduced into the cells by transfection method using Lipofectamine 2000 (manufactured by Invitrogen) and cultured in the CO2 incubator for another 18 hours. After collecting the culture supernatant from each well, the amount of human IFN-P production in the culture supernatant was measured by ELISA method using R&D human IFN-β Duoset (manufactured by R&D systems).
as §1, with “amount of human IFN-β production” for “reporter activity”, “cGAMP” for “Compound 3”
Evaluation Result. […] The inhibitory effect on the IFN-β production was indicated by marking an IC50 value of less than 0.01 μM with ***, that of 0.01 μM or more and less than 0.1 μM with **, that of 0.1 μM or more and less than 1 μM with *, and that of 1 μM or more with “-”, and NT was marked as unmeasured.

T2 sequence (Q86WV6 whole entry R71H/G230A/H232R/R293Q): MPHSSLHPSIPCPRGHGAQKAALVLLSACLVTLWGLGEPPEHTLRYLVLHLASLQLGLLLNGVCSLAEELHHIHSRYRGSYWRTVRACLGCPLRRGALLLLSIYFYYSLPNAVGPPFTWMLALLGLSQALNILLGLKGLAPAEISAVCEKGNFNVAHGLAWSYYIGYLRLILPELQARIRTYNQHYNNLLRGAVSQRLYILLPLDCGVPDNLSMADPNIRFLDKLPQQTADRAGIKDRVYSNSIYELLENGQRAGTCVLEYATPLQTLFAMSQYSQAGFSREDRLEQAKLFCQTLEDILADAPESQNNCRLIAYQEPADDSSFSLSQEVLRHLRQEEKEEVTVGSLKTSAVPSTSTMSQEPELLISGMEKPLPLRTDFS
T1 sequence (Q86WV6 whole entry H232R): as the sequence (Q86WV6 whole entry R71H/G230A/H232R/R293Q) above, with H71R, A230G, Q293R counted along it

| IC50 (hSTING) [nM] | IC50 (STING) [nM] | SMILES |
| --- | --- | --- |
| < 100 | < 10 | Nn1c(Nc2c[nH]c3ccc(Cl)cc23)nc2cc(C(F)(F)F)ccc21 [Example 1, N2-(5-chloro-1H-indol-3-yl)-5-(trifluoromethyl)-1H-benzo[d]imidazol-1,2-diamine Hydrochloride] |
| < 100 | < 10 | CNn1c(Nc2c[nH]c3cc(F)c(F)cc23)nc2cc(C(F)(F)F)ccc21 [Example 4, N2-(5,6-difluoro-1H-indol-3-yl)-N1-methyl-5-(trifluoromethyl)-1H-benzo[d]imidazol-1,2-diamine] |
| < 100 | < 10 | CNn1c(Nc2c[nH]c3ccc(C)c(F)c23)nc2cc(C(F)(F)F)ccc21 [Example 17, N2-(4-fluoro-5-methyl-1H-indol-3-yl)-N1-methyl-5-(trifluoromethyl)-1H-benzo[d]imidazole-1,2-diamine hydrochloride] |
